Measured values from US20150110814A1, “COMBINATION THERAPIES WITH PSMA LIGAND CONJUGATES” (PSMA Development Company, LLC, priority 2013, published 2015).
Square brackets hold non-standard residues; d marks the D form. Peptide text beside a SMILES is read from it. * marks the point of attachment. Dolaproine = CO[C@@H]([C@@H]1CCCN1)[C@@H](C)C(=O)O; Dil = CC[C@H](C)[C@H](NC)[C@@H](CC(=O)O)OC; X1 = C[C@@H](N*)[C@@H](O)c1ccccc1; NMeV = CN[C@H](C(=O)O)C(C)C

Columns and labels:
[1] = test system: LNCaP cells; test: Cell viability assay (CellTiter-Glo, inhibition of proliferation, Bliss synergy); type: cell-based, human; conditions: for activity when combined with PSMA ADC: LNCaP cells (FIG. 8)
Procedure: (§1) Cells were plated at a density of 1×10^3 cells in 25 μL in 384-well white-colored microplates (Perkin Elmer) and cultured overnight. The next day, cells were treated with 1 or 2 drugs in a total volume of 50 μL. Cultures were incubated at 37° C. for 7 days. Viability was assessed on days 0 and 7 using CellTiter-Glo (Promega) and an Analyst GT luminescence reader at 560 nm emission (Molecular Devices). The percent inhibition of proliferation was calculated as (Vu−Vt)/(Vu−V0)×100, where Vu, Vt and V0 represent the viability values for untreated cells on day 7, treated cells on day 7, and cells prior to treatment on day 0, respectively. […] Values of >100% reflect cytotoxic compounds or combinations, where Vt<V0.
(§2) Drug combinations were tested in 3 to 7 independent repeat cell viability assays unless otherwise indicated Inhibition data were fit to a four-parameter logistic equation using GraphPad Prism. […] Bliss differences were calculated by subtracting the predicted value (Fc) from the experimentally observed inhibition. Mean Bliss differences were calculated for each point in a matrix of drug-drug combinations, converted to percentages, and assessed for statistical significance from the null value of zero using two-sided t-tests with a significance level of 0.05. Statistical evaluations were not performed in cases where the fractional growth inhibition exceeded unity, since such values fall outside the Bliss framework. In addition, Bliss differences of less than 5% were considered to be of limited biological relevance and were excluded from synergy considerations.

[2] = test system: C4-2 cells; test: as above; type: cell-based, human; conditions: for activity when combined with PSMA ADC: C4-2 cells (FIG. 8)
Procedure: as §1, §2

[3] = test system: metastatic, castration-resistant prostate cancer (mCRPC); conditions: subjects with mCRPC; cited from earlier work
[4] = test system: PSMA expression on C4-2 cells; test: Flow cytometry of cell-surface PSMA expression; type: cell-based, human; design: cell-surface PSMA expression / PSMA expression on treated cells relative to untreated cells: dose or concentration left out as unconfirmed; conditions: for cell-surface PSMA expression: 7 days post-treatment
Procedure: (§3) For short-term treatments (≦7 days), cells were plated on 24-well plates (BD Falcon) overnight, at a density of 200,000 cells per 500 μL. The next day, wells were exchanged with 500 μL of fresh media that included inhibitor, and incubated at 37° C. until the indicated time point. For the long-term treatments (>7 days), cells were plated on T-25 flasks (BD Falcon) overnight, at a density of 500,000 cells per flask in 5 mL of media. 5 mL of fresh media with or without treatment was exchanged the next day. On weekly splits thereafter, cells were detached with Cell Dissociation solution (Sigma), washed with fresh media, counted using Vi-CELL XR (Beckman Coulter), and split into two T-25 flasks for continued culture with or without inhibitor. Prior to analysis, cells were detached, counted and suspended in PBS (PBS(−), without Ca/Mg, Life Technologies) containing 0.3% bovine serum albumin (BSA, Sigma) and 0.1% sodium azide (VWR). Cells (100,000 in 100 μL) were placed in round-bottom 96-well plates (Falcon) and incubated for 30 minutes at room temperature with 1 μg/mL of anti-PSMA mAb 3.9 conjugated to phycoerythrin (PE). Cells then were washed twice with 200 μL PBS/BSA/azide buffer and read using a FACSCalibur instrument (BD Biosciences). A mouse IgG2b-PE conjugate of irrelevant specificity (Abcam) was included as an isotype control.

[5] = test system: PSMA expression on LNCaP cells; test: Flow cytometry of cell-surface PSMA expression; type: cell-based, human; conditions: antiandrogens concentrations above 1 mM, 7 days post-treatment
Procedure: as §3

[6] = test system: PSMA in C4-2 cells; test: Western blotting of total PSMA; type: cell-based, human; conditions: 7 days
Procedure: (§4) Cells (300,000) were incubated overnight in 6-well plates (BD Falcon) in 4 mL of 10% FBS RPMI1640 media prior to addition of inhibitors. Plates were incubated at 37° C. for an additional 7 days, washed once with 5 mL of cold PBS(−) and placed on ice. Cells were lysed with 130 μL of RIPA Lysis Buffer (Santa Cruz Biotechnology) and then centrifuged at 14,000×g for 10 minutes at 4° C. The supernatant was quantitated for protein concentration using a BCA kit (Pierce/Thermo), resolved under reducing conditions using NuPAGE Novex 4-12% Bis-Tris gels (Life Technologies), and transferred to nitrocellulose using the iBlot 7-Minute Blotting System (Life Technologies). Membranes were blocked using Odyssey Blocking Reagent (LI-COR Biosciences), incubated with primary and secondary antibodies, and visualized using an Odyssey infrared imager (LI-COR Biosciences).

[7] = test system: PSMA in LNCaP cells; test: Western blotting of total PSMA; type: cell-based, human; conditions: 7 days, serial dilution of lysates
Procedure: as §4

Structure (SMILES)	activity when combined with PSMA ADC [1]	activity when combined with PSMA ADC [2]	single-agent antiproliferative effect ([1]; LNCaP cells, single agent)	effect on the activity of PSMA ADC ([2]; C4-2 cells)	single-agent antiproliferative effect ([2]; C4-2 cells, single agent)	other results
CC[C@H](C)[C@@H]([C@@H](CC(=O)N1CCC[C@H]1[C@H](OC)[C@@H](C)C(=O)N[C@H](C)[C@@H](O)c1ccccc1)OC)N(C)C(=O)[C@@H](NC(=O)[C@@H](NC)C(C)C)C(C)C [MMAE, monomethylauristatin norephedrine] (H-[NMeV]V[Dil][Dolaproine]-X1)	–	–	–	–	–	activity when paired with enzalutamide or abiraterone ([1]; LNCaP cells): additive activity; IC50 ([1]; LNCaP cells, single agent, 7 days): ~0.5 nM; activity when paired with enzalutamide or abiraterone ([2]; C4-2 cells): additive to weakly synergistic activity; IC50 ([2]; C4-2 cells, single agent, 7 days): ~0.5 nM
NC1(c2ccc(-c3nc4ccn5c(=O)[nH]nc5c4cc3-c3ccccc3)cc2)CCC1 [MK-2206]	additive to weakly synergistic activity	additive to weakly synergistic activity	–	–	–	–
C[C@]12C=CC(=O)C=C1CC[C@@H]1[C@@H]2C(=O)C[C@@]2(C)[C@H]1CC[C@]2(O)C(=O)CO [Prednisone, prednisone]	additive to weakly synergistic activity	additive to weakly synergistic activity	–	–	–	–
CS(=O)(=O)N1CCN(Cc2cc3nc(-c4cccc5[nH]ncc45)nc(N4CCOCC4)c3s2)CC1 [GDC-0941, 2-(1H-indazol-4-yl)-6-(4-methanesulfonyl-piperazin-1-ylmethyl)-4-morpholin-4-yl-t hieno[3,2-d]pyrimidine]	additive to weakly synergistic activity	additive to weakly synergistic activity	–	–	–	–
CO[C@H]1C(=O)[C@]2(C)[C@@H](OC)C[C@H]3OC[C@@]3(OC(C)=O)[C@H]2[C@H](OC(=O)c2ccccc2)[C@]2(O)C[C@H](OC(=O)[C@H](O)[C@@H](NC(=O)OC(C)(C)C)c3ccccc3)C(C)=C1C2(C)C [Jevtana, cabazitaxel]	–	–	–	–	–	survival benefit [3]: 2.4 month
CNC(=O)c1ccc(N2C(=S)N(c3ccc(C#N)c(C(F)(F)F)c3)C(=O)C2(C)C)cc1F [Enzalutamide, enzalutamide]	–	–	inhibited proliferation	significantly enhanced the activity of PSMA ADC	minimal antiproliferative effects	cell-surface PSMA expression ([4]; C4-2): approximately doubled; cell-surface PSMA expression ([4]; C4-2, listed as enzalutamide): doubled; time for PSMA expression to return to baseline in the absence of drug ([4]; C4-2, after 3 weeks culture in enzalutamide): ≤ 7 days; PSMA expression on treated cells relative to untreated cells ([4]; C4-2, after 21 days): 4 fold; exposure time to maximal PSMA expression ([4]; FIG. 15, cell line not stated in legend): 3 to 4 weeks; cell-surface PSMA expression [5]: approximately doubled; PSMA upregulation (Western) [6]: upregulated PSMA to similar extents; magnitude of increase in PSMA (Western, semi-quantitative) [7]: approximately 5 fold
CNC(=O)c1ccc(N2C(=S)N(c3cnc(C#N)c(C(F)(F)F)c3)C(=O)C23CCC3)cc1F [ARN-509]	–	–	inhibited proliferation	enhanced the activity of PSMA ADC	minimal antiproliferative effects	–
Cc1ccc(C(=O)N(CCCN)[C@@H](c2oc3cc(Cl)ccc3c(=O)c2Cc2ccccc2)C(C)C)cc1 [SB-743921]	additive to weakly synergistic activity	additive to weakly synergistic activity	–	–	–	–
C[C@]12CC[C@H](O)CC1=CC[C@@H]1[C@@H]2CC[C@]2(C)C(n3cnc4ccccc43)=CC[C@@H]12 [TOK-001, galeterone]	–	–	inhibited proliferation	enhanced the activity of PSMA ADC	minimal antiproliferative effects	–
CO[C@H]1C[C@@H]2CC[C@@H](C)[C@@](O)(O2)C(=O)C(=O)N2CCCC[C@H]2C(=O)O[C@H]([C@H](C)C[C@@H]2CC[C@@H](O)[C@H](OC)C2)CC(=O)[C@H](C)/C=C(\C)[C@@H](O)[C@@H](OC)C(=O)[C@H](C)C[C@H](C)/C=C/C=C/C=C/1C [Rapamycin, rapamycin]	–	–	–	–	–	increase in PSMA expression ([4]; C4-2, low nanomolar concentrations, 7 days): > 2 fold
